We go through one compound from patent US9963708B2, “Recombinant vector for foreign gene expression without biological circuit interference of host cell and uses thereof” (INDUSTRY FOUNDATION OF CHONNAM NATIONAL UNIVERSITY, priority 2014, dated 2018).

For this assay, the system named is cGMP receptor protein. Put plainly: Inducible GFP expression with cGMP added directly as inducing agent, without guanylyl cyclase. It is filed as cell-based, Rhodospirillum centenum. To be noted: cGMP 500 μM in 0.1% DMSO, 6 hours; pTrc99a-P-CRP + pPRO (0896-GFPuv)3. An excerpt:
According to an inducible expression system, the target gene product is generally expressed in a large amount when there are internal/external inducing agents (chemicals, heat, oxygen, osmotic pressure, or the like) as a signal, and it is widely used in various fields. The most commonly used inducible system is a system in which IPTG is used as an inducing agent. However, being a chemically synthesized inducing agent, it is toxic to cells and, by producing an excess amount of proteins within a short time, a metabolic burden is stressful to the host, and thus it may work as a growth-inhibiting factor. […] To do so, guanylyl cyclase which converts GTP to cGMP molecule was removed, and cGMP was added as an inducing agent to a medium and the level of gene expression was determined. […]
pTrc99a-Cyc-P-CRP plasmid was treated with restriction enzymes BamHI and HindIII to remove the polynucleotide encoding the guanylyl cyclase and according to treatment with a Klenow fragment, self-ligation was induced to complete pTrc99a-P-CRP construct. […] After inoculation to have 1% concentration of the original culture (15 ml), when the absorbance (OD600) of the culture reaches 0.5, cGMP dissolved in 0.1% DMSO was added to 500 μM and expression of the green fluorescent protein was induced for 6 hours. […]

In the case of `Nc1nc2c(ncn2[C@@H]2O[C@@H]3COP(=O)(O)O[C@H]3[C@H]2O)c(=O)[nH]1` [cGMP, cyclic guanosine monophosphate], the “expression of the green fluorescent protein induced by cGMP” value was “there was indeed expression of the green fluorescent protein”.
